Test [1] has as its system primary neuronal cultures from rat cerebral cortex. Nature of the test: Neuroprotection (MTT cell viability) in primary neuronal cultures exposed to oxygen-glucose deprivation (OGD). Type of test: cell-based. The note with it: 24 h recovery after 4 h OGD, R24 h = 0%, control = 100%. The protocol: Primary neuronal cultures. Primary neuronal cultures from rat cerebral cortex were prepared as previously described.^54 All procedures associated with animal experiments were approved by the Ethics Committee of the Hospital Ramón y Cajal, Madrid (Spain). Cell suspensions from cerebral cortex were prepared from 16- to 17-day-old Sprague-Dawley rat embryos. Living cells in cell suspension were counted by trypan blue exclusion method. Cells were seeded on plastic multidishes precoated with 0.05 mg/mL poly-D-lysine at a density of 2.5×10^5 cells/cm^2 and were kept at 37° C. in a 6.5% CO2 atmosphere in high glucose Dulbecco's medium supplemented with 15% heat-inactivated (56° C. for 30 min) foetal calf serum. After 24 h, cultured cells were […] to induce experimental ischemia.^23 Cultured cells were washed and placed in glucose-free Dulbecco's medium (bubbled with 95% N2/5% CO2 for 30 min), and maintained in a humidified hypoxia chamber equipped with an oxygen and carbon dioxide control unit (Biospherix) at 6.5% CO2 and <0.1% O2 in N2 at 37° C. Cells were exposed to OGD for a period of 4 h (OGD 4 h). At the end of the OGD period, culture medium was replaced with oxygenated serum-free medium, and cells were placed and maintained in the normoxic incubator for 24 h to recovery (R24 h). In the neuroprotection experiments, the compounds were added at the onset of recovery period. Control cultures in Dulbecco's medium containing glucose were kept in the normoxic incubator for the same period of time as the OGD, and then medium (Dulbecco's/Ham's F12, 1:1 [vol/vol], 5 mg/mL glucose, 2 mM L-glutamine, and 1 mM sodium pyruvate, and supplemented with 100 μg/mL transferrin, 100 μM putrescine, 20 nM progesterone, 30 nM sodium selenite and 5 μg/mL insulin). Here, 6-7 day old cultured neurons were used in the experiments, and contained 90% β-III-tubulin-positive mature neurons, as described previously.^55
Exposure of cell cultures to oxygen-glucose deprivation and treatments. Primary neuronal cultures were exposed to […]. Control experiments included the same amounts of vehicle (final concentration<0.5% ethanol). Nitrone 2 was used as reference compound for neuroprotection. The experimental procedures were blindly performed, assigning a random order to each assayed nitrone. Nitrones were analyzed independently four-eight times with different batch of cultures and each experiment was run in quadruplicate.
Cell viability assay. Cell viability was evaluated by quantification of living, metabolically active cells, as determined by a colorimetric assay using the photometric reduction of 3-(4,5-dimethylthiazol-2-yl)-2,5-diphenyl tetrazolium bromide (MTT) (Roche) to a blue formazan product. The assay of living, metabolically active cells was performed by incubating with 0.2 mg/mL MTT in the culture medium for 1.5 h in an incubator at 37° C. in a 6.5% CO2 atm. After the incubation period, cells were lysed with an equal volume of 10 mM HCl and 10% SDS overnight. Values were quantified by absorbance (test 595 nm, reference 690 nm). Decreased MTT activity denotes impairment of mitochondrial function and is considered to be an index of cell damage. Primary neuronal cultures were collected at times indicated for MTT determination.
Neuroprotection of compounds was evaluated by a cell viability assay. The neuroprotective effect of the compounds 5-32 was evaluated on primary neuronal cultures from cerebral cortex subjected to oxygen-glucose deprivation (OGD) to induce experimental ischemia. Afterwards, cultured neurons were placed and kept in normoxic and normoglycemic conditions to recovery. […]

Test [2] can be described thus: Superoxide radical scavenging (hypoxanthine/xanthine oxidase system). It is filed as biochemical. The note with it: tested at 100 μM (0.1 mM). From the text:
3.7. Superoxide radical scavenging activity. Superoxide anion radical (O2⋅−) is less toxic than hydroxyl radical, but still one of the most known harmful toxic ROS. In physiological conditions, superoxide dismutase catalyzes its conversion to H2O2, which is the precursor for the formation of hydroxyl radicals in the presence of iron ions.43 Superoxide anion radicals O2⋅− and H2O2 are ROS produced in vivo through a one-electron reduction process of O2. The evaluation of superoxide anion radical scavenging activity can be determined using assays involving non-enzymatic or enzymatic production of superoxide anions. In this assay, superoxide anion radicals were generated by a hypoxanthine and xanthine oxidase reaction system, and the O2⋅− scavenging activity (%) has been measured spectrophotometrically.

Where only a bound is given, the exact number is not on record here.

What is called viability is the share of living cells, or the viability signal relative to a control. Low readings indicate more harm to the cells, high ones less harm to the cells.

In test [1] (Rattus norvegicus, 1 μM), `[O-]/[N+](=C\c1cc2cc(Cl)ccc2nc1Cl)Cc1ccccc1` [Compound 26, (Z)—N-Benzyl-1-(2,6-dichloroquinolin-3-yl)methanimine oxide] returned a viability at 1 µM of 41.72 ± 0.3%. In addition, the viability at 10 µM in test [1] (Rattus norvegicus, 10 μM) came out at 37.7 ± 0.52%. The same compound showed a viability at 100 µM in test [1] (Rattus norvegicus, 100 μM) below 0%. In test [1] (Rattus norvegicus), this compound had a viability at 250 µM of 0.35 ± 0.02%.
Regarding `Cc1ccc2nc(Cl)c(C=NO)cc2c1` [Compound 6], the “Neuroprotection (%)” value is 8.30 ± 0.62% in test [1] (0.5 μM), 11.28 ± 1.32% in test [1] (1 μM), below 0% in test [1] (10 μM) and below 0% in test [1] (100 μM).
`Cc1ccc2[nH]c(=O)c(/C=[N+](\[O-])Cc3ccccc3)cc2c1` [Compound 13, (Z)—N-Benzyl-1-(6-methyl-2-oxo-1,2-dihydroquinolin-3-yl)methanimine oxide] had a viability at 10 µM in test [1] (Rattus norvegicus, 10 μM) of 35.9 ± 1.46%. For the same compound, the viability at 100 µM in test [1] (Rattus norvegicus, 100 μM) is 42 ± 1.86%. In test [1] (Rattus norvegicus), this compound returned a viability at 250 µM of 29.8 ± 1.25%.
For `Cc1ccc2nc(Cl)c(/C=[N+](\[O-])Cc3ccccc3)cc2c1` [Compound 4, (Z)—N-benzyl-1-(2-chloro-6-methylquinolin-3-yl)methanimine oxide, reference compound], the viability at 10 µM in test [1] (Rattus norvegicus, 10 μM) came out at 55.4 ± 1.74%. Moreover, the viability at 50 µM in test [1] (Rattus norvegicus, 50 μM) is 56.8 ± 2.57%.
In test [1] (Rattus norvegicus, 1 μM), `Cc1ccc2nc(Cl)c(/C=[N+](\[O-])c3ccccc3)cc2c1` [Compound 11, (Z)-1-(2-Chloro-6-methylquinolin-3-yl)-N-phenylmethanimine oxide] had a viability at 1 µM of 21.1 ± 0.31%. Further, in test [1] (Rattus norvegicus, 10 μM), the viability at 10 µM is 36.5 ± 1%. In addition, the viability at 100 µM in test [1] (Rattus norvegicus, 100 μM) is below 0%. The same compound showed a viability at 250 µM in test [1] (Rattus norvegicus) of 1 ± 0.07%.
`Cc1ccc2[nH]c(=O)c(/C=[N+](\[O-])C(C)(C)C)cc2c1` [Compound 17, (Z)—N-tert-Butyl-1-(6-methyl-2-oxo-1,2-dihydroquinolin-3-yl)methanimine oxide] registered a viability at 10 µM in test [1] (Rattus norvegicus, 10 μM) of 20.2 ± 1.1%. The compound further came in with a viability at 100 µM in test [1] (Rattus norvegicus, 100 μM) of 17.6 ± 1.35%. The compound further registered a viability at 250 µM in test [1] (Rattus norvegicus) of 10.9 ± 0.88%.
`CNc1nc2ccc(C)cc2cc1/C=[N+](\[O-])Cc1ccccc1` [Compound 15, (Z)—N-Benzyl-1-(6-methyl-2-(methylamino)quinolin-3-yl)methanimine oxide] came in with a viability at 1 µM in test [1] (Rattus norvegicus, 1 μM) of 8.5 ± 0.18%. The compound also displayed a viability at 5 µM in test [1] (Rattus norvegicus, 5 μM) of 1.57 ± 0.03%. In test [1] (Rattus norvegicus, 10 μM), the viability at 10 µM was below 0%.
Consider `[O-]/[N+](=C\c1cc2cc(O)ccc2nc1Cl)Cc1ccccc1` [Compound 25, (Z)—N-Benzyl-1-(2-chloro-6-hydroxyquinolin-3-yl)methanimine oxide], for which, in test [1] (Rattus norvegicus, 1 μM), the viability at 1 µM was 25.15 ± 0.14%. In test [1] (Rattus norvegicus, 10 μM), this compound came in with a viability at 10 µM below 0%. In test [1] (Rattus norvegicus, 100 μM), the viability at 100 µM was below 0%. The viability at 250 µM in test [1] (Rattus norvegicus) is below 0%.
Compound `COc1ccc(OC)c2nc(Cl)c(/C=[N+](\[O-])Cc3ccccc3)cc12` [Compound 28, (Z)—N-Benzyl-1-(2-chloro-5,8-dimethoxyquinolin-3-yl)methanimine oxide] came in with a viability at 1 µM in test [1] (Rattus norvegicus, 1 μM) of 35.1 ± 0.84%. The viability at 10 µM in test [1] (Rattus norvegicus, 10 μM) was determined as 38.6 ± 0.55%. In test [1] (Rattus norvegicus, 100 μM), the viability at 100 µM stood at 44.27 ± 0.39%.
`[O-]/[N+](=C\c1cc2ccccc2nc1Cl)Cc1ccccc1` [Compound 20, (Z)—N-Benzyl-1-(2-chloroquinolin-3-yl)methanimine oxide] yielded a viability at 1 µM in test [1] (Rattus norvegicus, 1 μM) of 32.8 ± 2.72%. The compound also showed a viability at 10 µM in test [1] (Rattus norvegicus, 10 μM) below 0%. In test [1] (Rattus norvegicus, 100 μM), this compound yielded a viability at 100 µM below 0%.
As to `COc1nc2ccc(C)cc2cc1/C=[N+](\[O-])Cc1ccccc1` [Compound 14, (Z)—N-Benzyl-1-(2-methoxy-6-methylquinolin-3-yl)methanimine oxide], the viability at 1 µM in test [1] (Rattus norvegicus, 1 μM) amounted to 17.6 ± 1.11%. The compound also displayed a viability at 10 µM in test [1] (Rattus norvegicus, 10 μM) of 23.7 ± 1.77%. Moreover, the viability at 100 µM in test [1] (Rattus norvegicus, 100 μM) was below 0%.
For `CC(C)(C)/[N+]([O-])=C/c1cc2ccccc2n2nnnc12` [Compound 31, (Z)—N-tert-Butyl-1-(tetrazolo[1,5-a]quinolin-4-yl)methanimine oxide], in that order: 7.64 ± 0.14%, 9.84 ± 0.65% and 5.83 ± 0.56%.
As to `Cc1ccc2ncc(/C=[N+](\[O-])Cc3ccccc3)cc2c1` [Compound 12, (Z)—N-Benzyl-1-(6-methylquinolin-3-yl)methanimine oxide], the viability at 1 µM in test [1] (Rattus norvegicus, 1 μM) came to 37 ± 0.05%. The same compound registered a viability at 10 µM in test [1] (Rattus norvegicus, 10 μM) of 37.7 ± 0.66%. The same compound yielded a viability at 100 µM in test [1] (Rattus norvegicus, 100 μM) of 34.4 ± 0.67%. For the same compound, the viability at 250 µM in test [1] (Rattus norvegicus) amounted to 34.11 ± 0.15%.
As for `COc1nc2ccccc2cc1/C=[N+](\[O-])Cc1ccccc1` [Compound 21, (Z)—N-Benzyl-1-(2-methoxyquinolin-3-yl)methanimine oxide], in test [1] (Rattus norvegicus, 1 μM), the viability at 1 µM was below 0%. In addition, the viability at 10 µM in test [1] (Rattus norvegicus, 10 μM) is 24.2 ± 0.36%. Also, the viability at 100 µM in test [1] (Rattus norvegicus, 100 μM) was below 0%.
Compound `COc1ccc2cc(/C=[N+](\[O-])Cc3ccccc3)c(Cl)nc2c1` [Compound 27, (Z)—N-Benzyl-1-(2-chloro-7-methoxyquinolin-3-yl)methanimine oxide] yielded a viability at 1 µM in test [1] (Rattus norvegicus, 1 μM) of 26.6 ± 0.37%. This compound also yielded a viability at 10 µM in test [1] (Rattus norvegicus, 10 μM) of 28 ± 1.15%. This compound registered a viability at 100 µM in test [1] (Rattus norvegicus, 100 μM) of 19.4 ± 1.51%.
Regarding `O=C(O)/C=C/c1ccc(O)c(O)c1` [Caffeic acid, caffeic acid, reference compound], the “O2*− (%)” value in test [2] amounted to 15%.
In test [1] (Rattus norvegicus, 1 μM), `Cc1ccc2nc(N(C)C)c(/C=[N+](\[O-])Cc3ccccc3)cc2c1` [Compound 16, (Z)—N-Benzyl-1-(2-(dimethylamino)-6-methylquinolin-3-yl)methanimine oxide] gave a viability at 1 µM of 12.9 ± 0.34%. In addition, the viability at 10 µM in test [1] (Rattus norvegicus, 10 μM) is 34.3 ± 0.59%. For the same compound, in test [1] (Rattus norvegicus, 100 μM), the viability at 100 µM was below 0%. For the same compound, the viability at 250 µM in test [1] (Rattus norvegicus) was below 0%.

The values are drawn from patent US12102631B2, “Quinolylnitrones for the treatment and prevention of a cerebral stroke or ischaemia” (ISQUAEMIA BIOTECH, S.L., priority 2018, dated 2024).
